This is an account of results in patent publication US20240190885A1, “KRAS PROTEIN DEGRADERS, PHARMACEUTICAL COMPOSITIONS THEREOF, AND THEIR THERAPEUTIC APPLICATIONS” (BioTheryX, Inc., priority 2021, published 2024).

Holding throughout (assay type): cell-based
Experiment [1] relates to Lovo (G13D) cells. Briefly: Cell viability assay (CELLTITER-GLO), Lovo cells. To be noted: Homo sapiens, 72 h, 3 days, CELLTITER-GLO luminescence, read-out: Inhibition of Cancerous Cells IC50 Lovo (G13D). The protocol: (§1) H358 and SW48 cells were cultured in RPMI 1640 media supplemented with 10% fetal bovine serum, streptomycin, and penicillin. Lovo and SW480 cells were cultured in DMEM media supplemented with 10% fetal bovine serum, streptomycin, and penicillin. The cell lines were plated in their respective medium supplemented with 2.5% fetal bovine serum, streptomycin, and penicillin. All cell lines were plated in white walled 96-well plates at 2,000 cells/well or 384-well plates at 500 cells/well, except Lovo, which were plated at 4,000 or 1,000 cells/well, respectively. The cells were incubated in DMSO (control) or a compound for 3 days at 37° C. under 5% CO2. A CELLTITER-GLO® reagent (100 μL) was then added to each well. After a 10 min incubation with shaking, luminescence was measured using an ENVISION® multimode plate reader.
(Cellular ATP, detected with luciferase, serves as a proxy for viable cell number.)

Experiment [2] relates to SW480 (G12V) cells. The experiment can be described thus: Cell viability assay (CELLTITER-GLO), SW480 cells. To be noted: Homo sapiens, 72 h, 3 days, CELLTITER-GLO luminescence, read-out: Inhibition of Cancerous Cells IC50 SW480 (G12V). The protocol: as §1
Experiment [3] concerns SW48 (wt) cells. Briefly: Cell viability assay (CELLTITER-GLO), SW48 cells. To be noted: Homo sapiens, 72 h, 3 days, CELLTITER-GLO luminescence, read-out: Inhibition of Cancerous Cells IC50 SW48 (wt). The protocol:
as §1

The subject of experiment [4] is H358 (G12C) cells. The experiment can be described thus: Cell viability assay (CELLTITER-GLO), H358 cells. The conditions noted are these: Homo sapiens, NCI-H358, 72 h, 3 days, CELLTITER-GLO luminescence, read-out: Inhibition of Cancerous Cells IC50 H358 (G12C). The protocol:
as §1

Experiment [5] concerns the target T1, KRAS (Homo sapiens, UniProt P01116).
T1 construct: Whole cell extracts were prepared using an immunoprecipitation (IP) lysis buffer; endogenous in cells; host or cells: HEK293
The experiment can be described thus: Protein degradation assay (western blot) in HEK293 cells. To be noted: 6 h; for percent KRAS protein degradation at 3 µM: compound 3 μM; for KRAS Protein Degradation (%) 5 μM: compound 5 μM. The method, then: HEK293 cells were grown in RPMI 1640 media supplemented with 10% fetal bovine serum, streptomycin, and penicillin. The cells were plated in 24-well plates in the growth media. The cells were then treated with a compound at indicated concentrations for 6 h. Whole cell extracts were prepared using an immunoprecipitation (IP) lysis buffer. Briefly, the cells were washed once in PBS, and the cell pellets were resuspended in the IP lysis buffer and incubated for 15 min on ice. Cell debris was removed by centrifugation and the cleared whole cell lysates were transferred to new tubes for further analysis.
For a western blot analysis, the whole cell protein extracts were separated on 4-12% SDS-polyacrylamide gels, transferred to nitrocellulose, and probed with primary antibodies. The nitrocellulose is subsequently washed and probed with IRDYE® secondary antibodies. The signals were detected using an ODYSSEY® Imaging System. The antibodies used in the assay included anti-KRAS; […] mouse monoclonal antibody; IRDYE® 680RD goat anti-rabbit antibody; and IRDYE® 800CW goat anti-mouse antibody.
On the technique in general: A western blot detects proteins with antibodies after separation by electrophoresis.

T1 sequence (P01116 1-188 isoform P01116-2): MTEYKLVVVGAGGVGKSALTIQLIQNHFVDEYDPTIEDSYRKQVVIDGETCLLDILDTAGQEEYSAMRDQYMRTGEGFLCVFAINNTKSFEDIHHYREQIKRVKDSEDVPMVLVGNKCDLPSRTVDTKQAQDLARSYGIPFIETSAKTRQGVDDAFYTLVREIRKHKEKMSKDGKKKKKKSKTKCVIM

By IC50 is commonly meant the concentration at which inhibition is half-maximal. Regarding `Cc1nn2c(N3CCN(CCO)CC3)cc(-c3cccc(CCCCCCCCCNC(=O)CC45CC6CC(CC(C6)C4)C5)c3)nc2c1-c1ccccc1` [Compound A1, 2-(adamantan-1-yl)-N-(9-(3-(7-(4-(2-hydroxyethyl)piperazin-1-yl)-2-methyl-3-phenylpyrazolo[1,5-a]pyrimidin-5-yl)phenyl)nonyl)acetamide], the IC50 in experiment [1] was 4500 nM; in experiment [2], over 10000 nM; in experiment [3], 5000 nM; in experiment [4] it was 7800 nM. Besides, in experiment [5], the percent KRAS protein degradation at 3 µM was 7%. Besides, in experiment [5], the “KRAS Protein Degradation (%) 5 μM” value was found to be 27%.
Consider `Cc1nn2c(N3CCN(CCO)CC3)cc(-c3cccc(CCNC(=O)CC45CC6CC(CC(C6)C4)C5)c3)nc2c1-c1ccccc1` [Compound A2, 2-(adamantan-1-yl)-N-(3-(7-(4-(2-hydroxyethyl)piperazin-1-yl)-2-methyl-3-phenylpyrazolo[1,5-a]pyrimidin-5-yl)phenethyl)acetamide], for which the IC50 amounted to 1200 nM in experiment [1], 840 nM in experiment [2], 1400 nM in experiment [3] and 1700 nM in experiment [4]. This compound came in with a percent KRAS protein degradation at 3 µM in experiment [5] of 20%. Further, in experiment [5], the “KRAS Protein Degradation (%) 5 μM” value came to 54%.
As to `Cc1nn2c(N3CCN(CCO)CC3)cc(-c3cccc(CCOCCOC(=O)CC45CC6CC(CC(C6)C4)C5)c3)nc2c1-c1ccccc1` [Compound A3, 2-(3-(7-(4-(2-hydroxyethyl)piperazin-1-yl)-2-methyl-3-phenylpyrazolo[1,5-a]pyrimidin-5-yl)phenethoxy)ethyl 2-(adamantan-1-yl)acetate], the IC50 in experiment [1] was found to be 980 nM; in experiment [2], 1200 nM; in experiment [3], 1400 nM; in experiment [4] it was 3300 nM. For the same compound, the percent KRAS protein degradation at 3 µM in experiment [5] turned out to be 0%. Besides, in experiment [5], the “KRAS Protein Degradation (%) 5 μM” value worked out at 0%.
Take `Cc1nn2c(N3CCN(CCO)CC3)cc(-c3cccc(CCOCCNC(=O)CC45CC6CC(CC(C6)C4)C5)c3)nc2c1-c1ccccc1` [Compound A4, 2-(adamantan-1-yl)-N-(2-(3-(7-(4-(2-hydroxyethyl)piperazin-1-yl)-2-methyl-3-phenylpyrazolo[1,5-a]pyrimidin-5-yl)phenethoxy)ethyl)acetamide]: the IC50 in experiment [1] stood at 880 nM; in experiment [2], 1200 nM; in experiment [3], 1300 nM; in experiment [4], 1600 nM. This compound also displayed a percent KRAS protein degradation at 3 µM in experiment [5] of 20%. In addition, the “KRAS Protein Degradation (%) 5 μM” value in experiment [5] is 51%.
Turning to `Cc1nn2c(N3CCN(CCO)CC3)cc(-c3cccc(C#CCCCCCCCOC(=O)CC45CC6CC(CC(C6)C4)C5)c3)nc2c1-c1ccccc1` [Compound A5, 9-(3-(7-(4-(2-hydroxyethyl)piperazin-1-yl)-2-methyl-3-phenylpyrazolo[1,5-a]pyrimidin-5-yl)phenyl)non-8-yn-1-yl 2-(adamantan-1-yl)acetate], the IC50 in experiment [1], in experiment [2], in experiment [3] and in experiment [4] was over 10000 nM each time. The percent KRAS protein degradation at 3 µM in experiment [5] stood at 4%. Moreover, the “KRAS Protein Degradation (%) 5 μM” value in experiment [5] was found to be 18%.
As to `Cc1nn2c(N3CCN(CCO)CC3)cc(-c3cccc(CCCCCCCCCOC(=O)CC45CC6CC(CC(C6)C4)C5)c3)nc2c1-c1ccccc1` [Compound A6, 9-(3-(7-(4-(2-hydroxyethyl)piperazin-1-yl)-2-methyl-3-phenylpyrazolo[1,5-a]pyrimidin-5-yl)phenyl)nonyl 2-(adamantan-1-yl)acetate], the IC50 in experiment [1], in experiment [2], in experiment [3] and in experiment [4] was over 10000 nM each time. In experiment [5], this compound returned a percent KRAS protein degradation at 3 µM of 10%. In experiment [5], the “KRAS Protein Degradation (%) 5 μM” value is 28%.
On to `Cc1nn2c(N3CCN(CCO)CC3)cc(-c3ccccc3)nc2c1-c1cccc(CCCCCCCCCNC(=O)CC23CC4CC(CC(C4)C2)C3)c1` [Compound C2, 2-(Adamantan-1-yl)-N-(9-(3-(7-(4-(2-hydroxyethyl)piperazin-1-yl)-2-methyl-5-phenylpyrazolo[1,5-a]pyrimidin-3-yl)phenyl)nonyl)acetamide], for which the IC50 was 3400 nM in experiment [1], 2200 nM in experiment [2], 4500 nM in experiment [3] and over 10000 nM in experiment [4]. In experiment [5], the percent KRAS protein degradation at 3 µM stood at 0%. Besides, the “KRAS Protein Degradation (%) 5 μM” value in experiment [5] was 0%.
Turning to `Cc1nn2c(N3CCN(CCO)CC3)cc(-c3ccccc3)nc2c1-c1ccccc1` [drawing 105, reference compound], the IC50 in experiment [1] was 2600 nM; in experiment [2], 1400 nM; in experiment [3] it was 2700 nM; in experiment [4], 3300 nM.
`Cc1nn2c(N3CCN(CCO)CC3)cc(-c3ccccc3)nc2c1-c1ccccc1` [drawing 106, reference compound] yielded a percent KRAS protein degradation at 3 µM in experiment [5] of 0%.
